Measured values from ChEMBL document CHEMBL1146791, “Synthesis of nitrated indenoisoquinolines as topoisomerase I inhibitors” (2004).

Tests used:
UACC-62 = assay: Cytotoxicity against UACC-62 human melanoma cancer cell line was determined; type: functional
HCT-116 = assay: Cytotoxicity against HCT116 human colon cancer cell line was determined; type: functional
HOP-62 = assay: Cytotoxicity against HOP-62 human lung cancer cell line was determined; type: functional
SN12C = assay: Cytotoxicity against SN12C human renal cancer cell line was determined; type: functional
SF-268 = assay: Cytotoxicity against SF-268 human CNS cancer cell line was determined; type: functional
MDA-MB-435 = assay: Cytotoxicity against MDA-MB-435 human breast cancer cell line was determined; type: functional
OVCAR-3 = assay: Cytotoxicity against OVCAR-3 human ovarian cancer cell line was determined; type: functional
[1] = target: T1, DNA topoisomerase 1 (Homo sapiens) (UniProt P11387); assay: Inhibitory activity against DNA topoisomerase I cleavage was determined at a concentration ranging up to 10 uM; ''+++'' indicates greater activity than the parent compound 25; design: scale not given here
T1 sequence (whole entry): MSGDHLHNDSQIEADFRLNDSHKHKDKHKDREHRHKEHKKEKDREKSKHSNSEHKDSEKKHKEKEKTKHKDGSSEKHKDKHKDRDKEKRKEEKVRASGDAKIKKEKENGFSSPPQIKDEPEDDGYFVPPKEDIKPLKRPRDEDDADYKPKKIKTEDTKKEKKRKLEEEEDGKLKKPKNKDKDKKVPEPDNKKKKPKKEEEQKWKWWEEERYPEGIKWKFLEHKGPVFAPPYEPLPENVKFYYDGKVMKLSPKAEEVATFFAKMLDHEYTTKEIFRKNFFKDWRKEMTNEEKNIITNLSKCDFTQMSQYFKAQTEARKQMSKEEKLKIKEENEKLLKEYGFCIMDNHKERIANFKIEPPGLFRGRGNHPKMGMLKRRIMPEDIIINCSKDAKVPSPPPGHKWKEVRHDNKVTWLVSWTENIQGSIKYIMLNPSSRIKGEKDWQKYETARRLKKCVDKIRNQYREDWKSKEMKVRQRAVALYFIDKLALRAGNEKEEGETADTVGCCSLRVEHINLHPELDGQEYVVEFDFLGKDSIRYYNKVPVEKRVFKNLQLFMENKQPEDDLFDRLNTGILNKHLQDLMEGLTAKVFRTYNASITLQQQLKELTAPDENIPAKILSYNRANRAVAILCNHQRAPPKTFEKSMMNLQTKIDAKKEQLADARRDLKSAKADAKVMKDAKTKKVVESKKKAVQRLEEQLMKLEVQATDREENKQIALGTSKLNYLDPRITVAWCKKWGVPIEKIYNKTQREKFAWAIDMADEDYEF

DU-145 = assay: Cytotoxicity against DU-145 human prostate cancer cell line was determined; type: functional
[2] = target: T1, DNA topoisomerase 1 (Homo sapiens); assay: Inhibitory activity against DNA topoisomerase I cleavage was determined at a concentration ranging up to 10 uM; NT- Not tested
[3] = target: T1, DNA topoisomerase 1 (Homo sapiens); assay: Inhibitory activity against DNA topoisomerase I cleavage was determined at a concentration ranging up to 10uM; '+' indicates weak activity
[4] = target: T1, DNA topoisomerase 1 (Homo sapiens); assay: Inhibitory activity against DNA topoisomerase I cleavage was determined at a concentration ranging up to 10 uM
[5] = target: T1, DNA topoisomerase 1 (Homo sapiens); assay: Inhibitory activity against DNA topoisomerase I cleavage was determined at a concentration ranging uM camptothecin
[6] = target: T1, DNA topoisomerase 1 (Homo sapiens); assay: Inhibitory activity against DNA topoisomerase I cleavage was determined at a concentration ranging up to 10 uM; ''+/-'' No description in the article

| Activity [1] | Activity [2] | Activity [3] | Activity [4] | Activity [5] | Activity [6] | SMILES | GI50 (UACC-62) [nM] | GI50 (HCT-116) [nM] | GI50 (HOP-62) [nM] | GI50 (SN12C) [nM] | GI50 (SF-268) [nM] | GI50 (MDA-MB-435) [nM] | GI50 (OVCAR-3) [nM] | GI50 (DU-145) [nM] |
| --- | --- | --- | --- | --- | --- | --- | --- | --- | --- | --- | --- | --- | --- | --- |
| ++ | – | – | – | – | – | CN1C(=O)c2cc([N+](=O)[O-])ccc2[C@H]2C(=O)c3cc4c(cc3[C@H]21)OCO4 | 26 | 14 | 158 | 33 | 24 | 107 | 30 | 50 |
| – | 0 | – | – | – | – | O=C1c2ccccc2-c2c1c1ccc([N+](=O)[O-])cc1c(=O)n2CCCBr | > 100000 | 3450 | – | > 100000 | > 100000 | > 100000 | > 100000 | > 100000 |
| – | – | weak activity | – | – | – | O=C1c2cc3c(cc2[C@@H]2[C@H]1c1ccc([N+](=O)[O-])cc1C(=O)N2CCCCl)OCO3 | < 10 | < 10 | < 10 | < 10 | < 10 | < 10 | < 10 | < 10 |
| – | – | – | – | – | – | [N-]=[N+]=NCCCn1c2c(c3ccc([N+](=O)[O-])cc3c1=O)C(=O)c1ccccc1-2 | 44700 | 8130 | > 100000 | 72400 | 79400 | > 100000 | – | > 100000 |
| – | – | – | 0 | – | – | Nc1ccc2c3c(n(CCCCl)c(=O)c2c1)-c1cc2c(cc1C3=O)OCO2 | > 100000 | – | – | > 100000 | > 100000 | > 100000 | > 100000 | – |
| – | – | weak activity | – | – | – | NCCCn1c2c(c3ccccc3c1=O)C(=O)c1cc3c(cc1-2)OCO3 | – | – | – | – | – | – | – | – |
| – | – | – | – | – | – | COc1cc2c3c(n(C)c(=O)c2cc1OC)-c1cc2c(cc1C3=O)OCO2 | 4200 | 35000 | 1300 | 68000 | – | 96000 | – | 37000 |
| – | – | – | – | +++ | – | [N-]=[N+]=NCCCn1c2c(c3ccc([N+](=O)[O-])cc3c1=O)C(=O)c1cc3c(cc1-2)OCO3 | < 10 | < 10 | < 10 | < 10 | < 10 | < 10 | < 10 | < 10 |
| – | – | – | – | – | +/- | O=C1c2ccccc2-c2c1c1ccccc1c(=O)n2CCCBr | – | – | – | – | 4610 | – | – | – |
| – | – | – | – | – | – | O=C1c2ccccc2-c2c1c1ccc([N+](=O)[O-])cc1c(=O)n2CCCCl | 20400 | 3630 | 43700 | 26900 | 23400 | 31600 | 4900 | 40700 |
| – | – | weak activity | – | – | – | O=C1c2cc3c(cc2[C@@H]2[C@H]1c1ccc([N+](=O)[O-])cc1C(=O)N2CCCBr)OCO3 | < 10 | < 10 | < 10 | < 10 | < 10 | < 10 | < 10 | < 10 |
| ++ | – | – | – | – | – | COc1cc2c3c(n(CCCN)c(=O)c2cc1OC)-c1cc2c(cc1C3=O)OCO2 | – | – | – | – | – | – | – | – |
| – | – | – | – | +++ | – | NCCCn1c2c(c3ccc([N+](=O)[O-])cc3c1=O)C(=O)c1cc3c(cc1-2)OCO3 | 17 | < 10 | < 10 | < 10 | < 10 | 25 | 302 | < 10 |
| – | – | – | – | – | – | NCCCn1c2c(c3ccc([N+](=O)[O-])cc3c1=O)C(=O)c1ccccc1-2 | 372 | 85 | 275 | 102 | 302 | – | – | 148 |
| ++ | – | – | – | – | – | O=C1c2cc3c(cc2-c2c1c1ccc([N+](=O)[O-])cc1c(=O)n2CCCCl)OCO3 | 229 | 2400 | 410 | 132 | 148 | 1820 | 9120 | 98 |
| ++ | – | – | – | – | – | NCCCn1c2c(c3ccccc3c1=O)C(=O)c1ccccc1-2 | 260 | 180 | – | 160 | – | 780 | 1380 | 220 |
| – | – | – | – | – | – | [N-]=[N+]=NCCCn1c2c(c3ccccc3c1=O)C(=O)c1ccccc1-2 | 19500 | 4900 | 7590 | 25100 | – | 7760 | 7940 | 44700 |
| – | – | weak activity | – | – | – | COc1cc2c(cc1OC)[C@H]1C(=O)c3cc4c(cc3[C@H]1N(CCCBr)C2=O)OCO4 | 50 | 70 | 120 | 30 | – | 150 | 400 | 30 |
